According to patent publication US8952024B2, “Herbicidal pyrimidone derivatives” (E I du Pont de Nemours and Company, priority 2009, dated 2015):

How the values were obtained:
Format in all cases: in vivo
Conditions in all cases: Postemergence
[1] = system: cocklebur (Xanthium strumarium); assay: Test B pre-/postemergence plant response
How it was run: (§1)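 Steps: sow seed in loam–sand soil and spray preemergence, or grow plants in peat-based medium to 1–4 leaves (2–18 cm) and spray postemergence; formulation is non-phytotoxic solvent plus surfactant; hold in greenhouse 13–15 days; score visually vs controls, 0 = no effect, 100 = complete control.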

[2] = system: goosegrass (Eleusine indica); assay: Test B pre-/postemergence plant response
How it was run: as §1

[3] = system: johnsongrass (Sorghum halepense); assay: Test B pre-/postemergence plant response
How it was run: as §1

[4] = system: kochia (Kochia scoparia); assay: Test B pre-/postemergence plant response
How it was run: as §1

[5] = system: pigweed (Amaranthus retroflexus); assay: Test B pre-/postemergence plant response
How it was run: as §1

[6] = system: ragweed (common ragweed, Ambrosia elatior); assay: Test B pre-/postemergence plant response
How it was run: as §1

[7] = system: soybean (Glycine max); assay: Test B pre-/postemergence plant response
How it was run: as §1

[8] = system: velvetleaf (Abutilon theophrasti); assay: Test B pre-/postemergence plant response
How it was run: as §1

[9] = system: wheat (Triticum aestivum); assay: Test B pre-/postemergence plant response
How it was run: as §1

[10] = system: wild oat (Avena fatua); assay: Test B pre-/postemergence plant response
How it was run: as §1

[11] = system: canarygrass (Phalaris minor); assay: Test B postemergence plant response
How it was run: (§2)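 Plants at the 1- to 4-leaf stage (2 to 18 cm tall), grown in pots of peat moss/vermiculite medium with wetting agent and starter nutrients, received postemergence applications of test chemicals. After 13 to 15 days in a greenhouse, injury was rated visually against untreated controls on a 0 (no effect) to 100 (complete control) scale.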

[12] = system: chickweed (Stellaria media); assay: Test B postemergence plant response
How it was run: as §2

[13] = system: windgrass (Apera spica-venti); assay: Test B postemergence plant response
How it was run: as §2

[14] = 31 g ai/ha, 0 to 100 scale (0 no effect, 100 complete control)
[15] = 62 g ai/ha, scale 0 to 100 (0 no effect, 100 complete control)
[16] = 125 g ai/ha, scale 0 to 100 (0 no effect, 100 complete control)
[17] = 250 g ai/ha, scale 0 to 100 (0 no effect, 100 complete control), 13 to 15 days
[18] = 125 g ai/ha, scale 0 (no effect) to 100 (complete control), 13 to 15 days

For `COCCn1c(-c2cccc(C)c2)ncc(C(=O)C2=C(O)C3CCC(C3)C2=O)c1=O` (stereo not drawn) [Compound 233], the “Plant response rating, Cocklebur” value [1, 14] was 90, the “Plant response rating, Cocklebur” value [1, 15] was 100 and the “Plant response rating, Cocklebur” value [1, 16] was 100. For the same molecule, the “Plant response rating, Cocklebur” value [1, 17] was 100, the “Plant response rating, Goosegrass” value [2, 14] was 85 and the “Plant response rating, Goosegrass” value [2, 15] was 95. The “Plant response rating, Goosegrass” value [2, 16] was 98, the “Plant response rating, Goosegrass” value [2, 17] was 98 and the “Plant response rating, Johnsongrass” value [3, 14] was 0. The “Plant response rating, Johnsongrass” value [3, 15] was 5, the “Plant response rating, Johnsongrass” value [3, 16] was 25 and the “Plant response rating, Johnsongrass” value [3, 17] was 25. For the same molecule, the “Plant response rating, Kochia” value [4, 14] was 70, the “Plant response rating, Kochia” value [4, 15] was 85 and the “Plant response rating, Pigweed” value [5, 14] was 85. The “Plant response rating, Pigweed” value [5, 15] was 98, the “Plant response rating, Ragweed” value [6, 14] was 80 and the “Plant response rating, Ragweed” value [6, 15] was 85. The “Plant response rating, Ragweed” value [6, 17] was 98, the “Plant response rating, Soybean” value [7, 14] was 98 and the “Plant response rating, Soybean” value [7, 15] was 98. The “Plant response rating, Soybean” value [7, 17] was 100, the “Plant response rating, Velvetleaf” value [8, 14] was 80 and the “Plant response rating, Velvetleaf” value [8, 15] was 85. The “Plant response rating, Velvetleaf” value [8, 17] was 100, the “Plant response rating, Wheat” value [9, 14] was 10 and the “Plant response rating, Wheat” value [9, 15] was 30. For the same molecule, the “Plant response rating, Wheat” value [9, 17] was 65, the “Plant response rating, Oat, Wild” value [10, 14] was 30 and the “Plant response rating, Oat, Wild” value [10, 15] was 35. The “Plant response rating, Oat, Wild” value [10, 17] was 60, the “Plant response rating, Canarygrass” value [11, 14] was 0 and the “Plant response rating, Canarygrass” value [11, 15] was 5. For the same molecule, the “Plant response rating, Canarygrass” value [11, 16] was 10, the “Plant response rating, Canarygrass” value [11, 17] was 20 and the “Plant response rating, Chickweed” value [12, 14] was 90. The “Plant response rating, Chickweed” value [12, 15] was 95, the “Plant response rating, Chickweed” value [12, 16] was 100 and the “Plant response rating, Chickweed” value [12, 17] was 100. The “Plant response rating, Windgrass” value [13, 14] was 50, the “Plant response rating, Windgrass” value [13, 15] was 55 and the “Plant response rating, Windgrass” value [13, 17] was 60.
With `CCn1c(-c2ccccc2)ncc(C(=O)C2=C(O)C3CCC(C3)C2=O)c1=O` (stereo not drawn) [Compound 239] the “Plant response rating, Cocklebur” value [1, 14] was 90, the “Plant response rating, Cocklebur” value [1, 15] was 100 and the “Plant response rating, Cocklebur” value [1, 18] was 100. For the same molecule, the “Plant response rating, Cocklebur” value [1, 17] was 100, the “Plant response rating, Goosegrass” value [2, 14] was 80 and the “Plant response rating, Goosegrass” value [2, 15] was 98. For the same molecule, the “Plant response rating, Goosegrass” value [2, 18] was 98, the “Plant response rating, Goosegrass” value [2, 17] was 100 and the “Plant response rating, Johnsongrass” value [3, 14] was 0. The “Plant response rating, Johnsongrass” value [3, 15] was 20, the “Plant response rating, Johnsongrass” value [3, 18] was 60 and the “Plant response rating, Kochia” value [4, 14] was 90. The “Plant response rating, Kochia” value [4, 15] was 98, the “Plant response rating, Kochia” value [4, 18] was 98 and the “Plant response rating, Kochia” value [4, 17] was 98. For the same molecule, the “Plant response rating, Pigweed” value [5, 14] was 95, the “Plant response rating, Pigweed” value [5, 15] was 98 and the “Plant response rating, Pigweed” value [5, 18] was 98. For the same molecule, the “Plant response rating, Pigweed” value [5, 17] was 100, the “Plant response rating, Ragweed” value [6, 14] was 95 and the “Plant response rating, Ragweed” value [6, 15] was 98. For the same molecule, the “Plant response rating, Ragweed” value [6, 18] was 100, the “Plant response rating, Ragweed” value [6, 17] was 100 and the “Plant response rating, Soybean” value [7, 14] was 70. For the same molecule, the “Plant response rating, Soybean” value [7, 15] was 95, the “Plant response rating, Soybean” value [7, 18] was 98 and the “Plant response rating, Soybean” value [7, 17] was 98. For the same molecule, the “Plant response rating, Velvetleaf” value [8, 14] was 100, the “Plant response rating, Velvetleaf” value [8, 15] was 100 and the “Plant response rating, Velvetleaf” value [8, 18] was 100. The “Plant response rating, Velvetleaf” value [8, 17] was 100, the “Plant response rating, Wheat” value [9, 14] was 0 and the “Plant response rating, Wheat” value [9, 15] was 0. The “Plant response rating, Wheat” value [9, 18] was 5, the “Plant response rating, Wheat” value [9, 17] was 30 and the “Plant response rating, Oat, Wild” value [10, 14] was 0. For the same molecule, the “Plant response rating, Oat, Wild” value [10, 15] was 5, the “Plant response rating, Oat, Wild” value [10, 18] was 5 and the “Plant response rating, Oat, Wild” value [10, 17] was 30. For the same molecule, the “Plant response rating, Canarygrass” value [11, 14] was 0, the “Plant response rating, Canarygrass” value [11, 15] was 0 and the “Plant response rating, Canarygrass” value [11, 18] was 0. For the same molecule, the “Plant response rating, Canarygrass” value [11, 17] was 0, the “Plant response rating, Chickweed” value [12, 14] was 90 and the “Plant response rating, Chickweed” value [12, 15] was 98. The “Plant response rating, Chickweed” value [12, 18] was 98, the “Plant response rating, Chickweed” value [12, 17] was 100 and the “Plant response rating, Windgrass” value [13, 14] was 20. For the same molecule, the “Plant response rating, Windgrass” value [13, 15] was 30, the “Plant response rating, Windgrass” value [13, 18] was 30 and the “Plant response rating, Windgrass” value [13, 17] was 70.
